System: SEM cells
Experiment: cell viability relative to DMSO control; higher = less cytotoxic
Conditions: 48 h
Method in brief: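 NOMO1 or SEM (500 cells/well) or P12-Ichikawa (1000 cells/well) leukemia cells were adapted for at least four passages in each medium. They were seeded in 1536-well plates (5 μl) and pin-dosed with library compounds in DMSO over an 11-point threefold series, 47 μM to 0.79 nM. CellTiter-Glo One luminescence was read after 48 h at 37°C. Viability is the per-plate percentage relative to DMSO wells, with cell-free wells as background.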

[1] = HPLM + 10% dialyzed FBS, 0.000781 µM
[2] = HPLM + 10% dialyzed FBS, 0.00234 µM
[3] = HPLM + 10% dialyzed FBS, 0.00702 µM
[4] = HPLM + 10% dialyzed FBS, 0.0211 µM
[5] = HPLM + 10% dialyzed FBS, 0.0632 µM
[6] = HPLM + 10% dialyzed FBS, 0.19 µM
[7] = HPLM + 10% dialyzed FBS, 0.569 µM
[8] = HPLM + 10% dialyzed FBS, 1.71 µM
[9] = HPLM + 10% dialyzed FBS, 5.12 µM
[10] = HPLM + 10% dialyzed FBS, 15.4 µM
[11] = HPLM + 10% dialyzed FBS, 46.1 µM
[12] = RPMI 5 mM glucose + 10% FBS, 0.000781 µM
[13] = RPMI 5 mM glucose + 10% FBS, 0.00234 µM
[14] = RPMI 5 mM glucose + 10% FBS, 0.00702 µM
[15] = RPMI 5 mM glucose + 10% FBS, 0.0211 µM
[16] = RPMI 5 mM glucose + 10% FBS, 0.0632 µM
[17] = RPMI 5 mM glucose + 10% FBS, 0.19 µM
[18] = RPMI 5 mM glucose + 10% FBS, 0.569 µM
[19] = RPMI 5 mM glucose + 10% FBS, 1.71 µM
[20] = RPMI 5 mM glucose + 10% FBS, 5.12 µM
[21] = RPMI 5 mM glucose + 10% FBS, 15.4 µM
[22] = RPMI 5 mM glucose + 10% FBS, 46.1 µM
[23] = RPMI 5 mM glucose + 10% dialyzed FBS, 0.000781 µM
[24] = RPMI 5 mM glucose + 10% dialyzed FBS, 0.00234 µM
[25] = RPMI 5 mM glucose + 10% dialyzed FBS, 0.00702 µM
[26] = RPMI 5 mM glucose + 10% dialyzed FBS, 0.0211 µM
[27] = RPMI 5 mM glucose + 10% dialyzed FBS, 0.0632 µM
[28] = RPMI 5 mM glucose + 10% dialyzed FBS, 0.19 µM
[29] = RPMI 5 mM glucose + 10% dialyzed FBS, 0.569 µM
[30] = RPMI 5 mM glucose + 10% dialyzed FBS, 1.71 µM
[31] = RPMI 5 mM glucose + 10% dialyzed FBS, 5.12 µM
[32] = RPMI 5 mM glucose + 10% dialyzed FBS, 15.4 µM
[33] = RPMI 5 mM glucose + 10% dialyzed FBS, 46.1 µM

Compound	cell viability [1] [%]	cell viability [2] [%]	cell viability [3] [%]	cell viability [4] [%]	cell viability [5] [%]	cell viability [6] [%]	cell viability [7] [%]	cell viability [8] [%]	cell viability [9] [%]	cell viability [10] [%]	cell viability [11] [%]	cell viability [12] [%]	cell viability [13] [%]	cell viability [14] [%]	cell viability [15] [%]	cell viability [16] [%]	cell viability [17] [%]	cell viability [18] [%]	cell viability [19] [%]	cell viability [20] [%]	cell viability [21] [%]	cell viability [22] [%]	cell viability [23] [%]	cell viability [24] [%]	cell viability [25] [%]	cell viability [26] [%]	cell viability [27] [%]	cell viability [28] [%]	cell viability [29] [%]	cell viability [30] [%]	cell viability [31] [%]	cell viability [32] [%]	cell viability [33] [%]
C[C@@H]\1CC(=O)N\N=C1C2=CC=C(NN=C(C#N)C#N)C=C2	88.9	86.8	101	87.4	98.4	96.5	55.4	92.3	106	62.8	4.93	68.2	92.4	107	92.6	88.4	102	39.3	90.9	95.2	35.3	5	73.5	88.4	91.4	93.1	95.2	92.5	72.8	100	107	53.2	6.27
COc1cc(OC)c(/C=C/[S+](=O)([O-])Cc2ccc(OC)c(NCC(=O)[O][Na])c2)c(OC)c1	123	105	125	125	118	75.9	29.5	28.2	27	21.9	13.4	109	107	115	112	111	66.3	20	17.8	15.2	9.59	7.67	121	122	122	120	121	24.1	24.3	18.8	10.1	7.92	8.13
Cn1cnc2c1c(=O)[nH]c(=O)n2C	97.5	110	103	106	116	115	112	107	94.1	91	5.76	92.7	85.2	106	101	93.2	107	93	94.3	79.6	61.8	5.77	95.3	99	90.9	108	111	94.3	108	105	96.8	79.9	6.67
C[S+]([O-])(=O)C1=CC=C(C=C1)C/2=C(/C(=O)OC2)C3=CC=CC=C3	96	102	105	107	103	115	104	115	115	79.7	94.1	100	107	104	119	114	122	104	95.1	102	66.9	11.4	89.4	105	115	111	112	120	119	117	124	75	71.6
CCOC(=O)C/1=C(O)/C(=O)N(CC2=CC=CC=C2)C1	97.8	98.5	98	91	110	108	108	120	111	106	86.1	99	104	94.4	90.1	111	111	99.4	99.2	98.3	94.9	83.9	119	113	105	125	109	111	108	125	108	106	93.7
C=CC(=O)N1CCC[C@@H](n2nc(-c3ccc(Oc4ccccc4)cc3)c3c(N)ncnc32)C1	–	–	–	–	–	–	–	–	–	–	–	95.1	127	112	99	128	110	102	99.7	103	79.9	33.5	–	–	–	–	–	–	–	–	–	–	–
O=C(O)C1=NC(C(=O)O)CC(/C=C/N2c3cc(O)c(OC4OC(CO)C(O)C(O)C4O)cc3CC2C(=O)O)=C1 (centres undefined)	109	106	110	109	101	113	112	104	103	95.9	103	102	107	101	113	101	111	115	102	102	101	97.2	112	113	102	118	108	112	105	96.4	111	105	96.9
CN1CCCN=C1/C=C/c1cccs1.O=C(O)c1cc2ccccc2c(Cc2c(O)c(C(=O)O)cc3ccccc23)c1O	113	126	114	128	120	135	118	119	113	115	91.9	113	118	128	119	105	128	129	105	105	92.9	15	–	–	–	–	–	–	–	–	–	–	–
CC(C)NC[C@@H](C(=O)N1CCN(c2ncnc3c2[C@H](C)C[C@H]3O)CC1)c1ccc(Cl)cc1	113	103	115	89.3	87.6	63.6	36.9	23.1	12.1	9.57	1.69	103	112	127	101	74.3	61.3	36.9	32.5	13.8	5.24	1.73	117	90.3	93	79.4	93.2	48.5	34.9	20.5	9.56	4.26	2.07
CC(C)C(=O)Nc1ccc([N+](=O)[O-])c(C(F)(F)F)c1	103	112	118	129	122	136	131	134	138	130	130	118	115	119	136	124	140	135	128	123	116	121	125	119	133	144	127	146	142	157	146	139	122
CN(C)[C@H]\1[C@@H]2C[C@H]3C(=C(O)\[C@]2(O)C(=O)\C(=C1O)C(N)=O)/C(=O)C4=C(O)C=CC=C4[C@@]3(C)O	92.6	88.5	81.5	101	92.5	90.8	92.7	86.6	85.2	90.1	78.3	113	118	114	102	83.7	104	108	96.8	93.2	109	93	118	108	128	129	89.8	108	126	116	59.4	116	100
COc1ccc(C(C)=O)c(O)c1	93.7	98.2	110	95.1	94.2	111	108	112	114	121	112	104	121	118	124	87.8	114	121	137	120	118	121	105	92.2	118	125	108	126	102	133	132	123	117
Cn1c(CNc2ccc(C(=N)N)cc2)nc2cc(C(=O)N(CCC(=O)O)c3ccccn3)ccc21	87.6	96.3	95.2	106	101	103	102	117	104	121	116	73.1	99.2	98.6	97.6	102	96.6	99.6	93.2	95.6	110	103	65.6	98	95.8	114	110	104	97.7	122	120	118	119
N=C(NCCCCCCNC(=N)NC(=N)Nc1ccc(Cl)cc1)NC(=N)Nc1ccc(Cl)cc1	95.6	104	95.6	95.2	101	104	104	93.9	92.2	86.8	52	98.4	102	104	97.5	93.4	107	96.4	104	107	97.6	68	83.6	92.9	93.4	87.9	89.3	96.7	90.9	85.8	103	80.9	42.1

Reference: the supplement of paper PMC11451515
